Measured values reported in US12304912B2, “Fused bicyclic RAF inhibitors and methods for use thereof” (Jazz Pharmaceuticals Ireland Limited, priority 2020, dated 2025).
≈ marks a conversion by molar mass, not a printed value. Read-outs that look alike come from different tables or passages of the source.

How the values were obtained:
[1] = tested on: constitutive ERK phosphorylation in HCT-116 cells; assay: HCT-116 AlphaLISA SureFire pERK1/2 cellular assay; type: cell-based, human; details: Homo sapiens, read-out: pERK HCT116 (2 hr) Abs pIC50 (converted)
Description: HCT-116 AlphaLISA SureFire pERK1/2 Cellular Assay […] […] Assay read outs took place 2 or 24 hours after dosing with compounds. On the first day, HCT-116 cells were harvested, resuspended in growth medium (McCoys5A with Glutamax (Life Technologies 36600021) and 10% heat-inactivated fetal bovine serum (Sigma F9665)), and counted. Cells were plated in 100 μl per well in each well of a 96-well culture dish (Sigma CLS3598) to a final density of 30,000 (2 hr read) or 15,000 (24 hr read) cells per well and incubated over night at 37° C. and 5% CO2. On day 2, the growth medium was exchanged for dosing medium (McCoys5A with Glutamax (Life Technologies 36600021) and 1% heat-inactivated fetal bovine serum (Sigma F9665)) and the cells were dosed with compounds to produce a 10-point dose response, where the top concentration was 1 μM and subsequent concentrations were at 1/3 log dilution intervals. A matched DMSO control was included. The cells were subsequently incubated for either 2 or 24 hours at 37° C. and 5% CO2. After incubation, media was removed and the cells were incubated with lysis buffer containing phosphatase inhibitors for 15 minutes at room temperature. Cell lysates were transferred to a 12 area 96 well white Optiplate™ (Perkin Elmer 6005569) and incubated with anti-mouse IgG acceptor beads, a biotinylated anti-ERK1/2 rabbit antibody recognizing both phosphorylated and non-phosphorylated ERK1/2, a mouse antibody targeted to the Thr202/Tyr204 epitope and recognizing phosphorylated ERK proteins only, and streptavidin-coated donor beads. The biotinylated antibody binds to the streptavidin-coated donor beads and the phopsho-ERK1/2 antibody binds to the acceptor beads. […] Both antibodies bound to phosphorylated ERK proteins, bringing the donor and acceptor beads into close proximity. All data were analyzed using the Dotmatics or GraphPad Prism software packages. Inhibition of ERK phosphorylation was assessed by determination of the absolute IC50 value, which is defined as the concentration of compound required to decrease the level of phosphorylated ERK proteins by 50% when compared to DMSO control.

[2] = Microsomal stability assay, human liver microsomes (HLM); type: in vitro ADME; details: 0.5 mg/mL protein, 1 μM substrate, 37° C.
Description: (§1) Microsomal Stability Assay
(§2) The stability studies were performed manually using the substrate depletion approach. Test compounds were incubated at 37° C. with cryo-preserved mouse or human liver microsomes (Corning) at a protein concentration of 0.5 mg·mL^−1 and a final substrate concentration of 1 μM. Aliquots were removed from the incubation at defined timepoints and the reaction was terminated by adding to ice-cold organic solvent. Compound concentrations were determined by LC-MS/MS analysis. The natural log of the percentage of compound remaining was plotted against each time point and the slope determined. The half-life (t1/2) and CLint were calculated using Equations 1 and 2, respectively.
(§3) HLM (human liver microsomes) and MLM (mouse liver microsomes) stability assay results are described in Tables 1-2.

[3] = Microsomal stability assay, mouse liver microsomes (MLM); type: in vitro ADME; details: 0.5 mg/mL protein, 1 μM substrate
Description: as §1, §2, §3

[4] = Plasma protein binding assay, human plasma (hPPB); type: in vitro ADME; details: 5 μM, equilibrium dialysis 4 hours at 37° C.
Description: (§4) Plasma Protein Binding Assay The plasma protein binding was determined by the equilibrium dialysis method. A known concentration of compound (5 μM) in previously frozen human or mouse plasma (Sera Labs) was dialysed against phosphate buffer using a RED device (Life Technologies) for 4 hours at 37° C. The concentration of compound in the protein containing (PC) and protein free (PF) sides of the dialysis membrane were determined by LC-MS/MS and the % free compound was determined by equation 4. Data analysis was performed using Excel (Microsoft, USA). % free=(1−((PC−PF)/PC))×100 (4) hPPB (human plasma protein binding) and mPPB (mouse plasma protein binding) results are described in Tables 1-2.

[5] = Plasma protein binding assay, mouse plasma (mPPB); type: in vitro ADME; details: 5 μM, equilibrium dialysis 4 hours at 37° C.
Description: as §4

FeSSIF solubility assay = type: physicochemical; details: fed state simulated intestinal fluid (FeSSIF), thermodynamic from solid, pH 5 acetate buffer, 37° C., read-out: FESSIF Sol
Description: FeSSIF Solubility Assay 1 mL of fed state simulated intestinal fluid (FeSSIF), prepared using FaSSIF/FeSSIF/FaSSGF powder (Biorelevant.com) and pH 5 acetate buffer, was added to 1.0 mg of compound and then incubated for 24 h (Bioshake iQ, 650 rpm, 37° C.). Following filtration under positive pressure, the concentration of compound in solution was assessed by LC-UV in comparison to the response for a calibration standard of known concentration (250 μM). FeSSIF solubility results are described in Tables 1-2.

[6] = Solubility (Sol), medium not stated; type: physicochemical; details: cells not marked (FESSIF)
[7] = HCT-116, HCT116 cells, 2 hr, Abs

Row | SMILES | IC50 [1, 7] | microsomal CLint at 1 μM [2] | microsomal CLint at 1 μM ([3]; 37° C.) | hPPB (% free) [4] | mPPB (% free) [5] | solubility thermodynamic at 24 h (FeSSIF solubility assay) | microsomal CLint at 1 μM [3] | Sol [6] | IC50 ([1]; HCT-116, 2 h)
1 | CC(C)(C)c1cc(-c2c[nH]c(C3COc4ccc(Oc5ccnc6c5CCC(=O)N6)cc4C3)n2)ccn1 (stereo not drawn) [Compound 121, 5-[3-[4-(2-tert-butyl-4-pyridyl)-1H-imidazol-2-yl]chroman-6-yl]oxy-3,4-dihydro-1H-1,8-naphthyridin-2-one] | > 1000 nM | 207 µL/min/mg | 137 µL/min/mg | 0.4 % free | 0.4 % free | 38.2 µg/mL (≈ 77.1 µM) | – | – | –
2 | O=C1CCc2c(Oc3ccc4c(c3)CC(c3nc(-c5ccnc(C6CC6)c5)c[nH]3)CO4)ccnc2N1 (stereo not drawn) [Compound 119, 5-[3-[4-(2-cyclopropyl-4-pyridyl)-1H-imidazol-2-yl]chroman-6-yl]oxy-3,4-dihydro-1H-1,8-naphthyridin-2-one] | 724 nM | 74.2 µL/min/mg | 35.8 µL/min/mg | 0.6 % free | 0.9 % free | < 1.2 µg/mL | – | – | –
3 | CC(C)c1cc(-c2c[nH]c(C3COc4ccc(Oc5ccnc6c5CCC(=O)N6)cc4C3)n2)ccn1 (stereo not drawn) [Compound 120, 5-[3-[4-(2-isopropyl-4-pyridyl)-1H-imidazol-2-yl]chroman-6-yl]oxy-3,4-dihydro-1H-1,8-naphthyridin-2-one] | 955 nM | 190 µL/min/mg | 89 µL/min/mg | 0.9 % free | 0.6 % free | 1.3 µg/mL (≈ 2.7 µM) | – | – | –
4 | O=C1CCc2c(Oc3ccc4c(c3)CN(c3nc5ccccc5[nH]3)CC4)ccnc2N1 [Compound 159, 5-[[2-(1H-benzimidazol-2-yl)-3,4-dihydro-1H-isoquinolin-7-yl]oxy]-3,4-dihydro-1H-1,8-naphthyridin-2-one] | > 1000 nM | 19.8 µL/min/mg | 34.4 µL/min/mg | 1.0 % free | 0.5 % free | < 1 µg/mL | – | – | –
5 | COc1ccc(-c2cc(C3COc4ccc(Oc5ccnc6c5CCC(=O)N6)cc4C3)[nH]n2)cc1 (stereo not drawn) [Compound 43] | – | – | – | – | – | – | 23.2 µL/min/mg | <1.2 mg/L | –
6 | Cc1nn(C)cc1-c1c[nH]c(C2COc3ccc(Oc4ccnc5c4CCC(=O)N5)cc3C2)n1 (stereo not drawn) [Compound 109, 5-[3-[4-(1,3-dimethylpyrazol-4-yl)-1H-imidazol-2-yl]chroman-6-yl]oxy-3,4-dihydro-1H-1,8-naphthyridin-2-one] | > 1000 nM | – | – | – | – | < 1.1 µg/mL | – | – | –
7 | c1ccc(-c2c[nH]c(C3COc4ccc(Oc5ccnc(NC6CCC6)c5)cc4C3)n2)cc1 (stereo not drawn) [Compound 142, N-cyclobutyl-4-[3-(4-phenyl-1H-imidazol-2-yl)chroman-6-yl]oxy-pyridin-2-amine] | > 1000 nM | – | – | – | – | 135 µg/mL (≈ 309 µM) | – | – | –
8 | CC(C(=O)Nc1cc(Oc2ccc3c(c2)CC(c2nc(-c4ccccc4)c[nH]2)CO3)ccn1)N1CCOCC1 (stereo not drawn) [Compound 150, 2-morpholino-N-[4-[3-(4-phenyl-1H-imidazol-2-yl)chroman-6-yl]oxy-2-pyridyl]propanamide] | – | – | – | – | – | 235 µg/mL (≈ 448 µM) | – | – | > 1000 nM
9 | CC(C)N1CCc2nc(C3COc4ccc(Oc5ccnc6c5CCC(=O)N6)cc4C3)[nH]c2C1 (stereo not drawn) [Compound 133, 5-[3-(5-isopropyl-3,4,6,7-tetrahydroimidazo[4,5-c]pyridin-2-yl)chroman-6-yl]oxy-3,4-dihydro-1H-1,8-naphthyridin-2-one] | > 1000 nM | – | – | – | – | 661 µg/mL (≈ 1440 µM) | – | – | –
10 | O=C1CCc2c(Oc3ccc4c(c3)CC(c3cc(-c5ccc(Cl)cc5)n[nH]3)CO4)ccnc2N1 (stereo not drawn) [Compound 39] | – | – | – | – | – | – | 15.4 µL/min/mg | <1.2 mg/L | –
11 | CC(=O)N1CCc2nc(C3COc4ccc(Oc5ccnc6c5CCC(=O)N6)cc4C3)[nH]c2C1 (stereo not drawn) [Compound 135, 5-[3-(5-acetyl-3,4,6,7-tetrahydroimidazo[4,5-c]pyridin-2-yl)chroman-6-yl]oxy-3,4-dihydro-1H-1,8-naphthyridin-2-one] | – | – | – | – | – | 33.2 µg/mL (≈ 72.3 µM) | – | – | > 1000 nM
12 | CCCc1ccc2[nH]c(N3CCc4ccc(Oc5ccnc6c5CCC(=O)N6)cc4C3)nc2c1 [Compound 161, 5-[[2-(5-propyl-1H-benzimidazol-2-yl)-3,4-dihydro-1H-isoquinolin-7-yl]oxy]-3,4-dihydro-1H-1,8-naphthyridin-2-one] | 562 nM | – | – | – | – | < 1.1 µg/mL | – | – | –
13 | O=C1CCc2c(Oc3ccc4c(c3)CN(c3nc5cc(-c6ccccc6)ccc5[nH]3)CC4)ccnc2N1 [Compound 162, 5-[[2-(5-phenyl-1H-benzimidazol-2-yl)-3,4-dihydro-1H-isoquinolin-7-yl]oxy]-3,4-dihydro-1H-1,8-naphthyridin-2-one] | > 1000 nM | – | – | – | – | 13.7 µg/mL (≈ 28.1 µM) | – | – | –
